# Experimental data taken from article PMC12265377, “CC48 a new CB2R agonist/FAAH inhibitor dual drug blocks gastric cancer progression and overcomes paclitaxel resistance” (Journal of Experimental & Clinical Cancer Research : CR, 2025).
# Assays:
# Format in all cases: cell-based, human
# HGC27-S cells [1] = experiment: Muse Ki67 cell proliferation assay; conditions: HGC27-S, 48 h
# Text: (§1) After the specified drug treatments, the cells were processed with the Muse Ki67 cell proliferation kit, which identified actively proliferating cells based on the expression of Ki67, a nuclear protein present in the active phases of the cell cycle (G1, S, G2, and M phases) and absent in the resting G0 phase. The Muse Ki67 Proliferation Assay was used with the Guava Muse Cell Analyzer according to the manufacturer’s instructions (Luminex Corporation, Austin, USA). Briefly, the cells were stained after fixation and permeabilization procedures, using Hu Ki67 or Hu IgG1 control fluorochrome-conjugated antibodies to distinguish Ki67(+) or Ki67(-) cells, respectively. The software provided the percentage of both Ki67(+) and Ki67(-) cells.
# HGC27-R cells [2] = experiment: Muse Ki67 cell proliferation assay
# Text: as §1
# NCI-N87 cells [3] = experiment: Muse Ki67 cell proliferation assay; conditions: NCI-N87, single treatment (10 µM compound; 2 nM PTX); control 78.2%
# Text: as §1
# HGC27-S cells [4] = experiment: Muse caspase 3/7 activation assay; conditions: 48 h
# Text: (§2) After the specified drug treatments, the cells were processed using the Muse Annexin V/Dead Cell Assay Kit (Luminex Corporation, Austin, USA) for quantitative analysis of live, early/ late apoptotic, and dead cells on a Muse Cell Analyzer. Briefly, the assay utilized Annexin V to detect phosphatidylserine on the external membrane of apoptotic cells. The fluorescent signal emitted by dye-conjugated antibodies was detected by flow cytometry technology (Muse Cell Analyzer, Luminex Corporation, Austin, USA). 7-Amino-Actinomycin D (7-AAD) dead cell marker was also used. The cells were then analyzed according to the user’s guide. […] After 48 h treatments the cells were processed according to the user’s guide and analyzed with the Muse caspase-3/7 kit (Millipore).The assay provides the relative percentage of living, early/late apoptotic or dead cells.
# HGC27-R cells [5] = experiment: Muse caspase 3/7 activation assay; conditions: 48 h
# Text: as §2
# NCI-N87 cells [6] = experiment: Muse caspase 3/7 activation assay
# Text: as §2
# [7] = representative flow cytometry chart, 10 µM CC48, PTX, single or combined as labelled
# [8] = representative flow cytometry chart, 48 h, 10 µM CC48, PTX, single or combined as labelled
# [9] = single treatment, untreated 6.6%
smiles,measurement,setting,value
"CC(=O)O[C@H]1C(=O)[C@@]2(C)[C@H]([C@H](OC(=O)c3ccccc3)[C@]3(O)C[C@H](OC(=O)[C@H](O)[C@@H](NC(=O)c4ccccc4)c4ccccc4)C(C)=C1C3(C)C)[C@]1(OC(C)=O)CO[C@@H]1C[C@@H]2O [PTX, Paclitaxel]",percentage of Ki67+ cells,"HGC27-S cells [1]; single treatment (10 µM CC48; 4 nM PTX), control 80.50%",58.1%
same,Ki67(+) cells,HGC27-S cells [1]; [7],58.10%
same,Ki67(-) cells,HGC27-S cells [1]; [7],41.90%
same,Ki67(+) cells,HGC27-R cells [2]; [8],80.50%
same,Ki67(-) cells,HGC27-R cells [2]; [8],19.50%
same,percentage of Ki67+ cells,"HGC27-R cells [2]; single treatment, control 82.95%",80.5%
same,percentage of Ki67+ cells,NCI-N87 cells [3],68.1%
same,apoptotic cells (caspase 3/7 activation),"HGC27-S cells [4]; single treatment (4 nM PTX, 6 µM AM630, 10 µM others), untreated 13.05%",26.2%
same,dead cells,HGC27-S cells [4]; [9],23.7%
same,apoptotic cells (caspase 3/7 activation),"HGC27-R cells [5]; single treatment (4 nM PTX, 6 µM AM630, 10 µM others), untreated 18.9%",21.4%
same,dead cells,HGC27-R cells [5]; [9],7.70%
same,cells with activated caspase 3/7,"NCI-N87 cells [6]; NCI-N87, single treatment (2 nM PTX, 6 µM AM630, 10 µM others), untreated 6.35%",14.6%
same,dead cells,"NCI-N87 cells [6]; NCI-N87, single treatment, control 5.8% / 5.6%",8.1%
